Source: article PMC2246842, “Decrease of prostaglandin I2 binding sites in thyroid cancer” (British Journal of Cancer, 1988)
“And” between values parts separate entries of the source, which are not always exact repeats. Equal entries are not always repeated.

Tests used:
[1] = design: method as in Moncada et al., 1976; conditions: pH 7.4; degradation to 6-oxo-PGF1a; ref Moncada et al., 1976; cited from earlier work
[2] = target: T1, prostaglandin I2 (prostacyclin, PGI2) binding sites (Homo sapiens, UniProt P43119); test: [3H]iloprost saturation binding (vacuum filtration, Scatchard analysis) on normal thyroid membrane fraction
Experimental: (§1) For comparative studies saturation experi- ments were performed. […] Values are given as x +s.d. Student's t-test was employed for paired data. […] Each point represents the average of 6 separate experiments. […] Each point represents the average of 5 separate determinations.

[3] = target: prostaglandin I2 (prostacyclin, PGI2) binding sites; test: as above; design: species or system human; conditions: normal thyroid tissue, 4 C, 40 min, mean +/- s.d.; read-out: equilibrium dissociation constant (Kd), low affinity binding sites
Experimental: as §1

[4] = target: T1, prostaglandin I2 (prostacyclin, PGI2) binding sites; test: [3H]iloprost saturation binding (vacuum filtration, Scatchard analysis) on well differentiated thyroid cancer membrane fraction
Experimental: as §1

[5] = target: T1, prostaglandin I2 (prostacyclin, PGI2) binding sites; test: [3H]iloprost saturation binding (vacuum filtration, Scatchard analysis) on less differentiated and anaplastic thyroid cancer membrane fraction
Experimental: as §1

[6] = target: T1, prostaglandin I2 (prostacyclin, PGI2) binding sites; test: [3H]iloprost saturation binding (vacuum filtration, Scatchard analysis) on benign solitary thyroid adenoma membrane fraction

T1 sequence (P43119 1-383): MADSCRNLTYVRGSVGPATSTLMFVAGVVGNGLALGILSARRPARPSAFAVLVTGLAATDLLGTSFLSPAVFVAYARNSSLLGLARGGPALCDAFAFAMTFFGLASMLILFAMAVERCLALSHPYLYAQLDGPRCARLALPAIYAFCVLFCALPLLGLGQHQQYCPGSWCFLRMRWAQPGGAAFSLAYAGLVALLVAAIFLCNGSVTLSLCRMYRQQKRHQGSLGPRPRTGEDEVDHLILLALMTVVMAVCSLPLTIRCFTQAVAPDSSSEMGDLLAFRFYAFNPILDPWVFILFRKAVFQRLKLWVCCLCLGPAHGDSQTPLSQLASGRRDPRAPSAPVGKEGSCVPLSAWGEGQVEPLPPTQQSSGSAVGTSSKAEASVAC

Row | SMILES | stability in aqueous medium [1] | binding capacity (Bmax), high affinity binding sites [2] | Kd [3] | Bmax [4] | Bmax, high affinity binding sites [4] | Bmax [5] | Bmax, high affinity binding sites [5] | diminution of [3H]iloprost high affinity binding sites [5] | Bmax, high affinity binding sites [6]
1 | CCCCC[C@H](O)/C=C/[C@@H]1[C@H]2C/C(=C/CCCC(=O)O)O[C@H]2C[C@H]1O [PGI2, prostaglandin I2] | rapid hydrolysis | – | – | – | – | – | – | – | –
2 | CC#CCC(C)[C@H](O)/C=C/[C@@H]1[C@H]2C/C(=C/CCCC(=O)O)C[C@H]2C[C@H]1O (stereo partly drawn) [[3H]iloprost, iloprost] | – | 613.2 ± 130.4 | 132 nM | 328.9 fmol mg- 1 protein and 359.2 fmol mg- 1 protein and 253.6 fmol mg- 1 protein and 255.5 fmol mg- 1 protein and 301.2 fmol mg- 1 protein | 299.7 ± 46.0 | 218.1 fmol mg- 1 protein and 176.0 fmol mg- 1 protein and 153.2 fmol mg- 1 protein and 165.3 fmol mg- 1 protein and 190.6 fmol mg- 1 protein | 180.6 ± 25.1 | ~70% | 325.8 ± 110.0
